{"source": "PubChem BioAssay AID1259409", "about": "(Chemical Carcinogenesis Research Information System (CCRIS), 2018)", "origin": "cited, not measured here", "tested_on": "rodent chemically induced tumor inhibition, incidence and multiplicity", "assay": "CCRIS tumor inhibitor studies", "details": "Dose [Inhibitor]: 0"}
{"smiles": "S=C=NCCCCc1ccccc1", "values": [{"measurement": "tumour outcome (control, treated, inhibition, significance)", "setting": "Carcinogen: 4-(METHYLNITROSAMINO)-1-(3-PYRIDYL)-1-BUTANONE, 64091-91-4, 0.2 UMOL 1/D FOR 4 D ADMINISTERED PRIOR TO CARCINOGEN TREATMENT (STUDY DURATION:116D), Route [Inhibitor]: GAVAGE, Species: MOUSE, Strain/Sex: STRAIN A, Target Tissue: Type of Lesion: LUNG: ADENOMA, Dose [Carcinogen]: 10 UMOL ONCE 2 HR AFTER FINAL DOSE OF INHIBITOR, Promoter: NONE USED", "value": "100%, 100%, 0%, not significant"}, {"measurement": "tumour outcome (control, treated, inhibition, significance)", "setting": "Carcinogen: 4-(METHYLNITROSAMINO)-1-(3-PYRIDYL)-1-BUTANONE, 64091-91-4, 1 UMOL 1/D FOR 4 D ADMINISTERED PRIOR TO CARCINOGEN TREATMENT (STUDY DURATION:116 D), Route [Inhibitor]: GAVAGE, Species: MOUSE, Strain/Sex: STRAIN A, Target Tissue: Type of Lesion: LUNG: ADENOMA, Dose [Carcinogen]: 10 UMOL ONCE 2 HR AFTER FINAL DOSE OF INHIBITOR, Promoter: NONE USED", "value": "100%, 42%, 58%, p<0.05"}, {"measurement": "tumour outcome (control, treated, inhibition, significance)", "setting": "Carcinogen: 4-(METHYLNITROSAMINO)-1-(3-PYRIDYL)-1-BUTANONE, 64091-91-4, 5 UMOL 1/D FOR 4 D ADMINISTERED PRIOR TO CARCINOGEN TREATMENT (STUDY DURATION: 116D), Route [Inhibitor]: GAVAGE, Species: MOUSE, Strain/Sex: STRAIN A, Target Tissue: Type of Lesion: LUNG: ADENOMA, Dose [Carcinogen]: 10 UMOL ONCE 2 HR AFTER FINAL DOSE OF INHIBITOR, Promoter: NONE USED", "value": "100%, 11%, 89%, p<0.05"}, {"measurement": "tumour outcome (control, treated, inhibition, significance)", "setting": "Carcinogen: 4-(METHYLNITROSAMINO)-1-(3-PYRIDYL)-1-BUTANONE, 64091-91-4, 5 UMOL 1/D FOR 4 D ADMINISTERED PRIOR TO CARCINOGEN DOSE (STUDY DURATION: 116 D), Route [Inhibitor]: GAVAGE, Species: MOUSE, Strain/Sex: STRAIN-A, Target Tissue: Type of Lesion: LUNG: ADENOMA, Dose [Carcinogen]: 10 UMOL IN SALINE ADMINISTERED 2 HR POST LAST AGENT DOSE, Promoter: NONE USED", "value": "100%, 32%, 68%, p<0.001"}, {"measurement": "tumour outcome (control, treated, inhibition, significance)", "setting": "Carcinogen: 4-(N-NITROSOMETHYLAMINO)-1-(3-PYRIDYL)-1-BUTANONE, 64091-91-4, 5 UMOL/D FOR 4 CONSECUTIVE DAYS (STUDY DURATION: 16.5 WK), Route [Inhibitor]: GAVAGE, Species: MOUSE, Strain/Sex: STRAIN-A/FEMALE, Target Tissue: Type of Lesion: LUNG: ADENOMA, Dose [Carcinogen]: 10 UMOL ONCE 2 HR POST LAST AGENT DOSE, Promoter: NONE USED", "value": "100%, 32%, 68%, not calculated"}, {"measurement": "tumour outcome (control, treated, inhibition, significance)", "setting": "Carcinogen: N-NITROSOMETHYLBENZYLAMINE, 937-40-6, 0.4 UMOL/G IN DIET FOR 25 WK BEGINNING 2 WK PRIOR TO CARCINOGEN TREATMENT (STUDY DURATION: 25 WK), Route [Inhibitor]: ORAL, Species: RAT, Strain/Sex: F344/MALE, Target Tissue: Type of Lesion: ESOPHAGUS: TUMOR, Dose [Carcinogen]: 0.5 MG/KG BW IN 20% DMSO 1/WK FOR 15 WK, Promoter: NONE USED", "value": "100%, 93%, 7%, not significant"}, {"measurement": "tumour outcome (control, treated, inhibition, significance)", "setting": "Carcinogen: N-NITROSOMETHYLBENZYLAMINE, 937-40-6, 1 UMOL/G IN DIET FOR 25 WK BEGINNING 2 WK PRIOR TO CARCINOGEN TREATMENT (STUDY DURATION: 25 WK), Route [Inhibitor]: ORAL, Species: RAT, Strain/Sex: F344/MALE, Target Tissue: Type of Lesion: ESOPHAGUS: TUMOR, Dose [Carcinogen]: 0.5 MG/KG BW IN 20% DMSO 1/WK FOR 15 WK, Promoter: NONE USED", "value": "100%, 93%, 7%, not significant"}, {"measurement": "tumour outcome (control, treated, inhibition, significance)", "setting": "Carcinogen: N-NITROSOMETHYLBENZYLAMINE, 937-40-6, 2.5 UMOL/G IN DIET FOR 25 WK BEGINNING 2 WK PRIOR TO CARCINOGEN TREATMENT (STUDY DURATION: 25 WK), Route [Inhibitor]: ORAL, Species: RAT, Strain/Sex: F344/MALE, Target Tissue: Type of Lesion: ESOPHAGUS: TUMOR, Dose [Carcinogen]: 0.5 MG/KG BW IN 20% DMSO 1/WK FOR 15 WK, Promoter: NONE USED", "value": "100%, 100%, 0%, not significant"}]}
{"smiles": "CC(C)=CC[C@@H](O)C1=CC(=O)c2c(O)ccc(O)c2C1=O", "values": [{"measurement": "tumour outcome (control, treated, inhibition, significance)", "setting": "Carcinogen: AZOXYMETHANE, 25843-45-2, 0.02% IN DIET IN WK 1-3 OF STUDY FOLLOWED BY BASAL DIET FOR DURATION OF STUDY (STUDY DURATION: 1 YR), Route [Inhibitor]: ORAL, Species: RAT, Strain/Sex: F344/MALE, Target Tissue: Type of Lesion: LARGE INTESTINE: ADENOCARCINOMA, Dose [Carcinogen]: 15 MG/KG BW 1/WK IN WK 1 AND 2 OF STUDY, Promoter: NONE USED", "value": "13/27 (48%), 6/20 (30%), 38%, not significant"}, {"measurement": "tumour outcome (control, treated, inhibition, significance)", "setting": "Carcinogen: AZOXYMETHANE, 25843-45-2, 0.02% IN DIET IN WK 1-3 OF STUDY FOLLOWED BY BASAL DIET FOR DURATION OF STUDY (STUDY DURATION: 1 YR), Route [Inhibitor]: ORAL, Species: RAT, Strain/Sex: F344/MALE, Target Tissue: Type of Lesion: LARGE INTESTINE: ADENOMA, Dose [Carcinogen]: 15 MG/KG BW 1/WK IN WK 1 AND 2 OF STUDY, Promoter: NONE USED", "value": "6/27 (22%), 4/20 (20%), 9%, not significant"}, {"measurement": "tumour outcome (control, treated, inhibition, significance)", "setting": "Carcinogen: AZOXYMETHANE, 25843-45-2, 0.02% IN DIET IN WK 1-3 OF STUDY FOLLOWED BY BASAL DIET FOR DURATION OF STUDY (STUDY DURATION: 1 YR), Route [Inhibitor]: ORAL, Species: RAT, Strain/Sex: F344/MALE, Target Tissue: Type of Lesion: SMALL INTESTINE: ADENOCARCINOMA, Dose [Carcinogen]: 15 MG/KG BW 1/WK IN WK 1 AND 2 OF STUDY, Promoter: NONE USED", "value": "6/27 (22%), 1/20 (5%), 77%, not significant"}]}
{"smiles": "O=C(CCCN1CCC(O)(c2ccc(Cl)cc2)CC1)c1ccc(F)cc1", "values": [{"measurement": "tumour outcome (control, treated, inhibition, significance)", "setting": "Carcinogen: AZOXYMETHANE, 25843-45-2, 2 MG/KG BW SUSPENDED IN 1 ML/MG OLIVE OIL 1/2 D FOR STUDY DURATION (STUDY DURATION: 30 WK), Route [Inhibitor]: SUBCUTANEOUS, Species: RAT, Strain/Sex: WISTAR/MALE, Target Tissue: Type of Lesion: COLON: TUMOR, Dose [Carcinogen]: 7.4 MG/KG IN 0.9% SALINE 1/WK FOR 10 WK", "value": "9/17 (53%), 3/19 (16%), 70%, p<0.05"}]}
